Patent publication US9241942B2, “IRE-1α inhibitors” (MannKind Corporation, priority 2007, dated 2016)

What was measured:
human IRE-1α = human IRE-1α (Homo sapiens (Human), UniProt O75460); assay: IRE-1α assay: cleavage of mini-XBP-1 mRNA stem-loop substrate by GST-IRE-1α in vitro; format: biochemical; conditions: values in text
Method: A fusion protein comprising glutathione S transferase (GST) and human IRE-1α (GST-IRE-1α) was obtained from a 500 ml baculovirus-infected insect cell culture and used to measure IRE-1α activity in vitro.
Five μl of a reaction mixture comprising 1× reaction buffer (5× reaction buffer is 100 mM Hepes pH 7.5, 250 mM KOAc, 2.5 mM MgCl2), 3 mM DTT, and 0.4% polyethylene glycol water were added to each well of 384 well plates. Twenty-five nanoliters of a 1 mM test compound solution were added to test wells. […] Negative control wells contained only reaction mixture and test compound.
The plates were again spun at 1200 rpm for 30 seconds.
The plates were covered with lids and incubated for one hour at 30° C. The plates were then transferred to an ACQUEST™ microplate reader. Data was analyzed using data analysis software, and the percent activity of IRE-1α was calculated.

RNase A = RNase A (Bos taurus (Bovine), UniProt P61823); assay: RNase A assay with mini-XBP-1 mRNA stem-loop substrate; format: biochemical; conditions: 2.5 μM test compound
RNase A, sequence (P61823 27-150): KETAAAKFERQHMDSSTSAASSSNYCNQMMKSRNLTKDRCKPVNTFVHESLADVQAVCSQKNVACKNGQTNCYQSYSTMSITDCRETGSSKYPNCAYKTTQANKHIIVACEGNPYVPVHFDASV
Method: RNase A was assayed as described for RNase T1. Final concentrations for the assay were: 63 nM substrate, 0.4 pg RNase A (Qiagen; 100 mg/ml or 7000 U/ml), and 2.5 μM test compound.

RNase T1 = RNase T1 (Aspergillus oryzae (strain ATCC 42149 / RIB 40) (Yellow koji mold), UniProt P00651); assay: T1 RNase assay with mini-XBP-1 mRNA stem-loop substrate; format: biochemical; conditions: 2.5 μM test compound
RNase T1, sequence (P00651 27-130): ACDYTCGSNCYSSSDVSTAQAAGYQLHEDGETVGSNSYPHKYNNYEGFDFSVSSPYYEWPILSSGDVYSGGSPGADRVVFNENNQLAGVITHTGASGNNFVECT
Method: T1 RNase was assayed as follows. Five μl of a reaction mixture comprising 1× reaction buffer (5× reaction buffer is 100 mM Hepes pH 7.5, 250 mM KOAc, 2.5 mM MgCl2), 3 mM DTT, and 0.4% polyethylene glycol water were added to each well of 384 well plates. Twenty-five nanoliters of a 1 mM test compound solution were added to test wells. Three μl of a 1/48,000 dilution of an approximately 200,000 U/ml RNase T1 (Worthington) preparation were added to each test well and to positive control wells (final concentration 49.5 pg/well). Negative control wells contained only reaction mixture and test compound.
After spinning the plates at 1200 rpm for 30 seconds, 3 μl of the mini-XBP-1 mRNA stem-loop substrate described in Example 1 were added to each well of a control plate. The plates were again spun at 1200 rpm for 30 seconds. Final concentrations for the assay were: 63 nM substrate, 49.5 pg RNase T1, and 2.5 μM test compound.
The plates were covered with lids and incubated for one hour at 30° C. The plates were then transferred to an ACQUEST™ microplate reader. Data was analyzed using data analysis software. The percent activity of RNase T1 was calculated.

[1] = test system: RPMI-8226 multiple myeloma cells; assay: Proliferation of multiple myeloma cells (CellTiter-Glo); format: cell-based, human; conditions: 24 hours, 100 μM to 0 μM
Method: FIG. 5. Graph showing inhibition of proliferation of multiple myeloma cells by IRE-1α inhibitor 11-28 (Example 11). RPMI-8226 multiple myeloma cells were seeded at 20,000 cells per well in RPMI culture medium containing 1% FBS and the required antibiotics. The plate was incubated overnight at 37° C., 95% air, 5% CO2. The following day, compound 11-28 or medium alone was added to wells, resulting in a final volume of 100 μl per well. The compound concentration ranged from 100 μM to 0 μM, with compounds diluted by a factor of 4. After addition of compound, the plate was incubated at 37° C., 95% air, 5% CO2 for 24 hours. Cell proliferation was measured using the CellTiter-Glo assay (Promega), following the manufacturer's instructions.
Proliferation assays using myeloma cell lines (U266, RPMI8226 and MM.1s) are used to determine ED50. Compounds are used as single agents and in combination with other chemotherapeutic drugs.

primary murine B cells = assay: IgM secretion after LPS stimulation of primary B cells (ELISA); format: cell-based, mouse; conditions: added at beginning of stimulation and again at 24 hours, 20 μg/ml LPS, 48 hr
Method: FIG. 9. Inhibition of IgM secretion after LPS stimulation of primary murine B cells with selected IRE-1α inhibitors. […] However, compounds had little effect when at added after 40 hours of stimulation; only slight inhibition at the highest dose. Methods were performed as previously described by Iwakoshi et al., Nature 4, 321-29, 2003 for B cell stimulation, plasma cell differentiation and IgM secretion. Primary B cells were Isolated from BALB/c splenocytes using mouse CD43 Microbeads (Miltenyi cat#130-049-801) with 1×10^6 cells per treatment. Purified B cells were stimulated in B Cell Media at a final density of 1×10^6/ml/well in 24-well plates with 20 μg/ml LPS (Sigma cat#L4391). IRE-1α inhibitor compound 17-1 was added at various concentrations (50 μM, 10 μM, 2 μM, 0.4 μM and 0.08 μM) at specified time points (t=0, t=24 hr, t=40 hr, etc.) Cells were incubated for 48 hr at 37° C. At end of the incubation, cells were spun in a plate at 1500 rpm/3 min. Supernatants were collected for quantitation for IgM secretion using a mouse IgM ELISA Kit (Bethyl Labs cat#E90-101). B Cell medium included RPMI+10% FBS supplemented with NEAA, HEPES, NaPyr, PSQ, and β-mercaptoethanol.

[2] = test system: phosphorylated IRE-1α and XBP1-splicing in RPMI8226 cells; assay: Western blot and RT-PCR of RPMI8226 cells after 24 hour treatment; format: cell-based, human
Excerpt: FIG. 6. […] The numbers indicate the concentration of bortezomib in nM.

human IRE-1α, sequence (O75460 19-977): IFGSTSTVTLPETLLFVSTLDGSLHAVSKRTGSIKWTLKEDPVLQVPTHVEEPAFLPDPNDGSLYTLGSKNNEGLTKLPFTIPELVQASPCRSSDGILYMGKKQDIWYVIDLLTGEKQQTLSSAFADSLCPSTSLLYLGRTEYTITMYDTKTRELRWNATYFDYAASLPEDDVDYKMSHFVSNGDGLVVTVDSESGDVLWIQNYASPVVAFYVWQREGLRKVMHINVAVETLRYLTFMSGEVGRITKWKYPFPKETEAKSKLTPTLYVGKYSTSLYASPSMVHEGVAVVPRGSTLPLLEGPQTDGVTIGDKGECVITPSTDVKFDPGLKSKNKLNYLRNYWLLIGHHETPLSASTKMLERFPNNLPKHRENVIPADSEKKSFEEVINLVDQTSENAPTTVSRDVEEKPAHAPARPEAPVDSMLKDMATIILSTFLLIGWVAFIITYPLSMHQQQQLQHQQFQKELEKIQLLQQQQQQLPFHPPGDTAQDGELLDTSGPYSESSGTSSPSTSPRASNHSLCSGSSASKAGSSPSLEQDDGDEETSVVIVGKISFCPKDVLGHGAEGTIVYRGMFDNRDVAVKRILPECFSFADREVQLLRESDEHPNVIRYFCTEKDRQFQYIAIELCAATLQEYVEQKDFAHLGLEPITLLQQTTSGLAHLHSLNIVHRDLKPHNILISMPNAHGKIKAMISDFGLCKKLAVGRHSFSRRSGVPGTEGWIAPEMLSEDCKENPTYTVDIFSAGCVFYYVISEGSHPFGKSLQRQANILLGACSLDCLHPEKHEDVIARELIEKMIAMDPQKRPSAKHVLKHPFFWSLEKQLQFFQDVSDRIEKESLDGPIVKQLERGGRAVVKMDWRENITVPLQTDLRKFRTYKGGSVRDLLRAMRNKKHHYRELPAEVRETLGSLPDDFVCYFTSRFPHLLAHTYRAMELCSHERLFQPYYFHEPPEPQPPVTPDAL

## CCOc1cccc(C=O)c1O [3-ethoxy o-vanillin, 2-hydroxy-3-ethoxybenzaldehyde]
Human IRE-1α
  IC50: 1000 nM
RNase A
  selectivity for IRE-1 over RNase A: selective for IRE-1
RNase T1
  selectivity for IRE-1 over T1 RNase: selective for IRE-1

## COc1ccc(Br)c(C=O)c1O [6-bromo o-vanillin]
RNase A
  selectivity for IRE-1 over RNase A: selective for IRE-1
RNase T1
  selectivity for IRE-1 over T1 RNase: selective for IRE-1

## COc1cc(-c2cccs2)cc(C=O)c1O [11-28]
[1]
  inhibition of proliferation: inhibits the proliferation

## CN(C)C(=O)c1ccc(-c2ccc3c(C=O)c(O)ccc3c2)cc1 [17-1, 4-(5-formyl-6-hydroxynaphthalen-2-yl)-N,N-dimethylbenzamide]
Primary murine B cells
  IgM secretion: blocked IgM secretion at all doses tested down to 100 nM

## CC(C)C[C@H](NC(=O)[C@H](Cc1ccccc1)NC(=O)c1cnccn1)B(O)O [bortezomib, [(1R)-3-methyl-1-[[(2S)-1-oxo-3-phenyl-2-[(pyrazinylcarbonyl)amino]propyl]amino]butyl]boronic acid]
[2]
  levels of phosphorylated IRE-1α and XBP1-splicing: increases the levels of phosphorylated IRE-1α and XBP1-splicing

## COc1cccc(C=O)c1O [o-vanillin, 2-hydroxy-3-methoxybenzaldehyde]
RNase A
  selectivity for IRE-1 over RNase A: selective for IRE-1
RNase T1
  selectivity for IRE-1 over T1 RNase: selective for IRE-1
